Measurements published in ChEMBL document CHEMBL3808387, “Discovery of IWP-051, a Novel Orally Bioavailable sGC Stimulator with Once-Daily Dosing Potential in Humans” (ACS Med Chem Lett, 2016).

Assays:
[1] = target: Soluble guanylate cyclase (Homo sapiens, UniProt O75343+P33402+Q02108+Q02153); experiment: Activation of SGC in HEK293 cells assessed as cGMP production after 20 mins by LC-MS/MS analysis in presence of NO-donor DETA-NONOate; type: cell-based
[2] = Intrinsic clearance in Sprague-Dawley rat liver microsomes assessed per mg of protein at 2 uM after 10 to 30 mins by LC/MS/MS analysis in presence of NADPH; type: ADME; details: read-out: CLH
[3] = Intrinsic clearance in human liver microsomes assessed per mg of protein at 2 uM after 10 to 30 mins by LC/MS/MS analysis in presence of NADPH; type: ADME; details: read-out: CLH
[4] = target: Soluble guanylate cyclase (Homo sapiens) (UniProt Q02153+O75343+P33402+Q02108); experiment: Activation of SGC in HEK293 cells assessed as cGMP production at 30 uM after 20 mins by LC-MS/MS analysis in presence of NO-donor DETA-NONOate; type: cell-based
[5] = Terminal half-life in Sprague-Dawley rat at 1 mg/kg, iv by LC-MS/MS analysis; type: ADME, organism-based; details: in vivo, read-out: beta t1/2
[6] = Oral bioavailability in Sprague-Dawley rat at 10 mg/kg by LC-MS/MS analysis; type: ADME, organism-based; details: in vivo
[7] = target: T1, Kappa-type opioid receptor (Homo sapiens, UniProt P41145); experiment: Agonist activity at KOP receptor (unknown origin)
T1 sequence (P41145 whole entry): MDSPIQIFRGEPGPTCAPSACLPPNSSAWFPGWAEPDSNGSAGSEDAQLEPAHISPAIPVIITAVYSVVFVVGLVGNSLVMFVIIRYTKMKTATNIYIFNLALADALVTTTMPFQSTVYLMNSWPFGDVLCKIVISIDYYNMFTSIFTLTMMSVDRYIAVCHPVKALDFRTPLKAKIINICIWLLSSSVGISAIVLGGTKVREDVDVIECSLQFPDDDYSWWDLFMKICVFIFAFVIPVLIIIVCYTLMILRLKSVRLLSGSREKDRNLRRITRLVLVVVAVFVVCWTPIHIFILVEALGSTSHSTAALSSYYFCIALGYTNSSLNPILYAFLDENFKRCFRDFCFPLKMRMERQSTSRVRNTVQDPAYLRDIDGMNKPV

[8] = target: T1, Kappa-type opioid receptor; experiment: Binding affinity to KOP receptor (unknown origin)

Soluble guanylate cyclase, sequence (Q02153 whole entry): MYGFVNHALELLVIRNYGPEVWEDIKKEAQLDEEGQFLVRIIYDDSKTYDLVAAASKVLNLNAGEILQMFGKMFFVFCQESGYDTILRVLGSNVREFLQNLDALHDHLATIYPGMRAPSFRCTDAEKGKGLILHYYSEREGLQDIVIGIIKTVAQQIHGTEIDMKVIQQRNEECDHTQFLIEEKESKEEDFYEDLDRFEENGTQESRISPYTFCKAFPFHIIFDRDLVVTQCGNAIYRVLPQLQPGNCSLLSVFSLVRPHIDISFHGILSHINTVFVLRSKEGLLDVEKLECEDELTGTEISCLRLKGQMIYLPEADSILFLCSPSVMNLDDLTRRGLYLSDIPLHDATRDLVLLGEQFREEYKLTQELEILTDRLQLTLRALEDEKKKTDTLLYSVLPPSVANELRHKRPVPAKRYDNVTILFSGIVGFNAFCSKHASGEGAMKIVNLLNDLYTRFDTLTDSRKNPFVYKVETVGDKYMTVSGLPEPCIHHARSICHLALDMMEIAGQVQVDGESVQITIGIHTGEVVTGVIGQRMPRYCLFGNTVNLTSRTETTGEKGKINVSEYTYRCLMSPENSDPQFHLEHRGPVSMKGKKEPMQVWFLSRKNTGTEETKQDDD
Soluble guanylate cyclase, sequence (O75343 whole entry): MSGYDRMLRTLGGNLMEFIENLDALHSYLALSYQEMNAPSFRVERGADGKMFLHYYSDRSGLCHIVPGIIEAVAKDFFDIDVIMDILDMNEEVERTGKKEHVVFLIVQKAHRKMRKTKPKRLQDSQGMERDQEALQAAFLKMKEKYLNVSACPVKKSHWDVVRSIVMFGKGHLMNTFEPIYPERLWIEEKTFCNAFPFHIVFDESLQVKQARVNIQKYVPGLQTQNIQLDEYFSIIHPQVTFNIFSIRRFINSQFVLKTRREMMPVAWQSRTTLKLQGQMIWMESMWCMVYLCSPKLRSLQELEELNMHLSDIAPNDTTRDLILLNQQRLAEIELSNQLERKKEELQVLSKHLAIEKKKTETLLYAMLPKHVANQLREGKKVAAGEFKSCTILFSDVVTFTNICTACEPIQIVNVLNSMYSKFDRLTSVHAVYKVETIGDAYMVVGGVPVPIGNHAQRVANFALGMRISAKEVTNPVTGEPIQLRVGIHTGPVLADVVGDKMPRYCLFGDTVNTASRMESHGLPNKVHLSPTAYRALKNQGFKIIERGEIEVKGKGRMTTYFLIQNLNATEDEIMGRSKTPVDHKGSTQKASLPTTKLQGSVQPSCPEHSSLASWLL
Soluble guanylate cyclase, sequence (P33402 whole entry): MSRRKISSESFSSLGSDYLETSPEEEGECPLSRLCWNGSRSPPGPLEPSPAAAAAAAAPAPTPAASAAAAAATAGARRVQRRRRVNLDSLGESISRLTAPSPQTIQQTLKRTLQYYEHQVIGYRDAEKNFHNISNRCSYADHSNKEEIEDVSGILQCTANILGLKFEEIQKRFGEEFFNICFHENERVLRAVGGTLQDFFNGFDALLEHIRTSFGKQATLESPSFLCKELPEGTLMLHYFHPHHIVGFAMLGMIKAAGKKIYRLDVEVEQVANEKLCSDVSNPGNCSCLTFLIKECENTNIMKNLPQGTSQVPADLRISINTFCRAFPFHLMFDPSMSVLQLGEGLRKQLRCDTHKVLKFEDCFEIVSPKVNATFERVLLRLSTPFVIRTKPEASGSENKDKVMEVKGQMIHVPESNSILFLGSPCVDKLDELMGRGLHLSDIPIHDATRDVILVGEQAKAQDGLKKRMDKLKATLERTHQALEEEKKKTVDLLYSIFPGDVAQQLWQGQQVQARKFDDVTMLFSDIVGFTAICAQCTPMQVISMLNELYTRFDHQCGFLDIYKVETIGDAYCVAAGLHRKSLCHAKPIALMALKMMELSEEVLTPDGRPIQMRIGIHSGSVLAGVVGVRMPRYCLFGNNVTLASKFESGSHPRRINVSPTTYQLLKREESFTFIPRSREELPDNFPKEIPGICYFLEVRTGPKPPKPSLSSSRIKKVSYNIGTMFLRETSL
Soluble guanylate cyclase, sequence (Q02108 whole entry): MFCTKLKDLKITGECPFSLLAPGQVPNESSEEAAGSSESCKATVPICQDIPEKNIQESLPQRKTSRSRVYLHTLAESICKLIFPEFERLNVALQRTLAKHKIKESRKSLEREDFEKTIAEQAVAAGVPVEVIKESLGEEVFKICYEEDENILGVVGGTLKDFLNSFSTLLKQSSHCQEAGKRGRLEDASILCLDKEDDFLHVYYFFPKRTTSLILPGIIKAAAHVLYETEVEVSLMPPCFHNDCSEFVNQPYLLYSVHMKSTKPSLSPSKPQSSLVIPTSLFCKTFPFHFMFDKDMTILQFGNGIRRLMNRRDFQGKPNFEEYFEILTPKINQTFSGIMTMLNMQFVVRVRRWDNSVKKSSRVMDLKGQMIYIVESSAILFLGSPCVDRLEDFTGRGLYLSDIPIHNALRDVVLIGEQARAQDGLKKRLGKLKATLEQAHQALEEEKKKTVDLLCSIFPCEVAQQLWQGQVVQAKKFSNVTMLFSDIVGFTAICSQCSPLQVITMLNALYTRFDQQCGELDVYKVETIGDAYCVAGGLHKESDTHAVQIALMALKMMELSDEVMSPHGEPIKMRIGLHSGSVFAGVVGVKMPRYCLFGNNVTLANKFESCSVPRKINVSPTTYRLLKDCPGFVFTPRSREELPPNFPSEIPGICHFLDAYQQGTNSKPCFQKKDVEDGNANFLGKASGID

EC50 [1]	microsomal CLint at 2 µM [2]	microsomal CLint at 2 µM [3]	Emax [4]	half-life [5]	bioavailability [6]	EC50 [7]	IC50 [8]	SMILES
880 nM	10 µL/min/mg	11 µL/min/mg	–	–	–	–	–	Oc1nc(-c2cc(-c3ccon3)n(Cc3ccccc3)n2)ncc1F
730 nM	58 µL/min/mg	179 µL/min/mg	–	–	–	–	–	CN(c1ccccc1)S(=O)(=O)c1cnc(-c2cc(-c3ccon3)n(Cc3ccccc3F)n2)nc1O
180 nM	129 µL/min/mg	169 µL/min/mg	–	–	–	–	–	O=c1[nH]c(-c2cc(-c3ccsn3)n(Cc3ccccc3F)n2)ncc1F
900 nM	13 µL/min/mg	15 µL/min/mg	–	–	–	–	–	CS(=O)(=O)c1cnc(-c2cc(-c3ccon3)n(Cc3ccccc3F)n2)nc1O
–	10 µL/min/mg	–	26%	–	–	–	–	Oc1nc(-c2cc(C3CC3)n(Cc3ccccc3F)n2)ncc1F
–	15 µL/min/mg	12 µL/min/mg	92%	–	–	–	–	Oc1ccnc(-c2cc(-c3ccon3)n(Cc3ccccc3F)n2)n1
–	24 µL/min/mg	8 µL/min/mg	87%	–	–	–	–	CN(C)S(=O)(=O)c1cnc(-c2cc(-c3ccon3)n(Cc3ccccc3F)n2)nc1O
–	20 µL/min/mg	19 µL/min/mg	54%	–	–	–	–	Oc1nc(-c2cc(-c3ccon3)n(Cc3ccccc3F)n2)ncc1C(F)(F)F
590 nM	5 µL/min/mg	7 µL/min/mg	–	–	–	–	–	Oc1nc(-c2cc(-c3ccon3)n(Cc3ccccc3F)n2)ncc1Cl
–	32 µL/min/mg	23 µL/min/mg	–	–	–	–	–	Oc1nc(-c2cc(-c3ccon3)n(CCC(F)(F)F)n2)ncc1F
240 nM	26 µL/min/mg	10 µL/min/mg	–	26 min	53%	1500 nM	1200 nM	Nc1ccnc(-c2cc(-c3ccon3)n(Cc3ccccc3F)n2)n1
240 nM	79 µL/min/mg	8 µL/min/mg	–	–	–	–	–	Cc1cccc(Cn2nc(-c3ncc(F)c(O)n3)cc2-c2ccon2)c1F
–	16 µL/min/mg	9 µL/min/mg	70%	–	–	–	–	Cc1nc(-c2cc(-c3ccon3)n(Cc3ccccc3F)n2)nc(O)c1F
380 nM	2 µL/min/mg	5 µL/min/mg	–	–	–	–	–	O=c1[nH]c(-c2cc(-c3ccon3)n(Cc3cccc(Cl)c3F)n2)ncc1F
–	9 µL/min/mg	7 µL/min/mg	–	–	–	–	–	N#Cc1cc(-c2ncc(F)c(=O)[nH]2)nn1Cc1ccccc1F
–	7 µL/min/mg	15 µL/min/mg	44%	–	–	–	–	Oc1nc(-c2cc(-c3ccon3)n(Cc3ncccc3F)n2)ncc1F
